Assay results reported in patent publication US6603046B1, “Bis-aromatic a,β-unsaturated ketones” (Lica Pharmaceuticals A/S, priority 1992, dated 2003).
≈ marks a conversion by molar mass, not a printed value.

Key:
Test in all cases: organism not typed
[1] = test system: L. bozemanii; type: cell-based
[2] = test system: L. wadsworthii; type: cell-based
[3] = test system: L. longbeacheae; type: cell-based
[4] = test system: L. domoffli; type: cell-based, L. dumoffii

## C=CC(C)(C)c1cc(/C=C/C(=O)c2ccc(O)cc2)c(OC)cc1O [Licochalcone A, licochalcone A]
[1]
  MIC: 2 µg/mL (≈ 5.91 µM)
[2]
  MIC: 2 µg/mL (≈ 5.91 µM)
[3]
  MIC: 1 µg/mL (≈ 2.96 µM)
[4]
  MIC: 2 µg/mL (≈ 5.91 µM)
